Here are results for two molecules from ChEMBL document CHEMBL1146450, “Ponicidin and oridonin are responsible for the antiangiogenic activity of Rabdosia rubescens, a constituent of the herbal supplement PC SPES” (J Nat Prod, 2004).

Active and inactive are the calls of the source. The calls are words filed in the database; no cut-off is given here.

Assay [1] has as its system HMEC-1. Kind of assay: Antiangiogenic activity in HMEC1 cells assessed as inhibition of capillary-like network formation at 1.5 ug/ml after 18 hrs. It is filed as functional, cell-based. As to conditions: Homo sapiens.
The subject of assay [2] is HMEC-1. Description: Antiangiogenic activity in HMEC1 cells assessed as inhibition of capillary-like network formation at 2.5 ug/ml after 18 hrs. As to conditions: Homo sapiens. It is filed as functional, cell-based.
The nature of assay [3]: Cytotoxicity against HMEC1 cells by resazurin assay. The class given is cell-based. As to conditions: Homo sapiens, HMEC-1. (Alamar Blue is a resazurin reagent that responds to reducing activity.)

For `C=C1C(=O)[C@@]23[C@@H]4OC5O[C@@]2(O)[C@@H](O)[C@@H]2C(C)(C)CC[C@@H](O)[C@]52[C@@H]3CC[C@@H]14`, the result in the assay on HMEC-1 [1] and in the assay on HMEC-1 [2] was Active.
By IC50 is commonly meant the midpoint of a concentration-inhibition curve. A lower IC50 goes with greater potency in that assay. In the case of `C=C1C(=O)[C@]23[C@H](O)[C@H]1CC[C@H]2[C@@]12CO[C@]3(O)[C@@H](O)[C@@H]1C(C)(C)CC[C@@H]2O` [ORIDONIN], the IC50 in assay [3] was more than 4 µg/mL. The outcome in the assay on HMEC-1 [1] and in the assay on HMEC-1 [2] was Active.
